Measured values: article PMC12396409, “Screening and hit evaluation of a microbial metabolite library against the pathogenic Plasmodium falciparum and Toxoplasma gondii parasites” (International Journal for Parasitology: Drugs and Drug …, 2025)
Read-outs that look alike come from different tables or passages of the source.

Experiments:
[1] = tested on: P. falciparum 3D7 parasites; experiment: P. falciparum growth inhibition assay, 1-cycle (72 h treatment), SYBR DNA staining (library screen at 2 μg/mL and dose-response); type: cell-based, Plasmodium falciparum; details: for activity at 2 µg/mL: Plasmodium falciparum, 3D7
[2] = tested on: P. falciparum 3D7 parasites; experiment: P. falciparum growth inhibition assay, 2-cycle (120 h treatment), delayed-death screen and dose-response; type: cell-based, Plasmodium falciparum; details: for activity at 2 µg/mL: Plasmodium falciparum, 3D7
[3] = tested on: T. gondii RH strain (RH-Tub-eYFP) tachyzoites; experiment: microbe, parasite or virus in culture; type: cell-based, Toxoplasma gondii; details: 72 h; for percent parasite growth at 2 µg/mL: Toxoplasma gondii
[4] = library screen at 2 μg/mL, 72 h, % growth, replicate 1
[5] = library screen at 2 μg/mL, 72 h, % growth, replicate 2
[6] = library screen at 2 μg/mL, 120 h, % growth, replicate 1
[7] = library screen at 2 μg/mL, 120 h, % growth, replicate 2
[8] = library screen at 2 μg/mL, % growth, replicate 1
[9] = library screen at 2 μg/mL, % growth, replicate 2
[10] = P. falciparum, 72 h, screen at 2 μg/mL, replicate 1
[11] = P. falciparum, 72 h, screen at 2 μg/mL, replicate 2
[12] = P. falciparum, 120 h, screen at 2 μg/mL, replicate 1
[13] = P. falciparum, 120 h, screen at 2 μg/mL, replicate 2
[14] = T. gondii, screen at 2 μg/mL, replicate 1
[15] = T. gondii, screen at 2 μg/mL, replicate 2

SMILES: CC(/C=C/C1CC=CC(=O)O1)=C\C(C)C/C=C/C(C)=C/C(C)C(=O)C(C)C(O)C(C)C/C(C)=C/C(=O)O (centres unmarked) [Anguinomycin A]
- Pf_72h_%Growth_Rep1 [1, 4]: 77.34%
- Pf_72h_%Growth_Rep2 [1, 5]: 87.20%
- Pf_120h_%Growth_Rep1 [2, 6]: 145.35%
- Pf_120h_%Growth_Rep2 [2, 7]: 79.09%
- Tg_72h_%Growth_Rep1 [3, 8]: 87.81%
- Tg_72h_%Growth_Rep2 [3, 9]: 87.77%

SMILES: CC[C@H]1CCC[C@H](O)[C@@H](C)C(=O)C2=C[C@@H]3[C@@H](C=C(C)[C@@H]4C[C@@H](O)C[C@@H]34)[C@@H]2CC(=O)O1 [Spinosyn D aglycone]
- IC50 ([1]; 3D7, 72 h treatment, mean ± S.D., n ≥ 3, read-out: IC50 (μM), P. falciparum): > 1 µM
- Pf_72h_%Growth_Rep1 ([1]; P. falciparum, 72 h, parasite screen 2 μg/mL, % growth, replicate 1): 82.67%
- Pf_72h_%Growth_Rep2 ([1]; P. falciparum, 72 h, parasite screen 2 μg/mL, % growth, replicate 2): 106.85%
- Screen (P. falciparum) ([1]; library screen at 2 μg/mL, 3D7, 72 h, DD from the 120 h timepoint): I
- Pf_120h_%Growth_Rep1 ([2]; P. falciparum, 120 h, parasite screen 2 μg/mL, % growth, replicate 1): 82.24%
- Pf_120h_%Growth_Rep2 ([2]; P. falciparum, 120 h, parasite screen 2 μg/mL, % growth, replicate 2): 90.76%
- Tg_72h_%Growth_Rep1 ([3]; T. gondii, parasite screen 2 μg/mL, % growth, replicate 1): 115.34%
- Tg_72h_%Growth_Rep2 ([3]; T. gondii, parasite screen 2 μg/mL, % growth, replicate 2): 86.84%

SMILES: CCCCCCCCCCCC(=O)N[C@H]1CCOC1=O [Dodecanoyl-L-homoserine lactone]
- Pf_72h_%Growth_Rep1 [1, 4]: 84.60%
- Pf_72h_%Growth_Rep2 [1, 5]: 89.07%
- Pf_120h_%Growth_Rep1 [2, 6]: 96.32%
- Pf_120h_%Growth_Rep2 [2, 7]: 89.02%
- Tg_72h_%Growth_Rep1 [3, 8]: 110.87%
- Tg_72h_%Growth_Rep2 [3, 9]: 103.60%

SMILES: CC(C)[C@@H]1NC(=O)[C@H](Cc2ccc(O)cc2)NC1=O [Cyclo(L-Tyr-L-Val)]
- Pf_72h_%Growth_Rep1 [1, 10]: 84.64%
- Pf_72h_%Growth_Rep2 [1, 11]: 82.94%
- Pf_120h_%Growth_Rep1 [2, 12]: 98.73%
- Pf_120h_%Growth_Rep2 [2, 13]: 89.51%
- Tg_72h_%Growth_Rep1 [3, 14]: 164.57%
- Tg_72h_%Growth_Rep2 [3, 15]: 103.47%

SMILES: O=c1c(-c2ccc(O)cc2)coc2cc(O)ccc12 [Daidzein]
- activity at 2 µg/mL ([1]; P. falciparum, 72 h, screen at 2 μg/mL, replicate 1, read-out: Pf_72h_%Growth_Rep1): 83.8%
- activity at 2 µg/mL ([1]; P. falciparum, 72 h, screen at 2 μg/mL, replicate 2, read-out: Pf_72h_%Growth_Rep2): 88.8%
- activity at 2 µg/mL ([2]; P. falciparum, 120 h, screen at 2 μg/mL, replicate 1, read-out: Pf_120h_%Growth_Rep1): 103%
- activity at 2 µg/mL ([2]; P. falciparum, 120 h, screen at 2 μg/mL, replicate 2, read-out: Pf_120h_%Growth_Rep2): 95.5%
- percent parasite growth at 2 µg/mL ([3]; T. gondii, screen at 2 μg/mL, replicate 1, read-out: Tg_72h_%Growth_Rep1): 125%
- percent parasite growth at 2 µg/mL ([3]; T. gondii, screen at 2 μg/mL, replicate 2, read-out: Tg_72h_%Growth_Rep2): 97%

SMILES: O=C1N[C@@H](C[C@@]2(O)c3ccccc3N3C(=O)C[C@@H](c4ccccc4)N[C@H]32)C(=O)N[C@H]1Cc1ccccc1 [Citreoindole]
- 1) Growth (%) at 72 h ([1]; P. falciparum, 2 μg/mL, 72 h): 27.30%
- Pf_72h_%Growth_Rep1 [1, 10]: 25.03%
- Pf_72h_%Growth_Rep2 [1, 11]: 29.57%
- 2) Growth (%) at 120 h ([2]; P. falciparum, 2 μg/mL, 120 h): 9.52%
- Pf_120h_%Growth_Rep1 [2, 12]: 10.68%
- Pf_120h_%Growth_Rep2 [2, 13]: 8.36%
- 3) Fold change (72 h/120 h) ([2]; P. falciparum, growth at 72 h / growth at 120 h, 2 μg/mL): 2.9
- Tg_72h_%Growth_Rep1 [3, 14]: 97.80%
- Tg_72h_%Growth_Rep2 [3, 15]: 86.03%

SMILES: O=C(O)c1c(=O)cccc2ssc12 [Tropodithietic acid]
- Pf_72h_%Growth_Rep1 [1, 10]: 3.58%
- Pf_72h_%Growth_Rep2 [1, 11]: -3.15%
- Pf_120h_%Growth_Rep1 [2, 12]: 21.29%
- Pf_120h_%Growth_Rep2 [2, 13]: 16.13%
- Tg_72h_%Growth_Rep1 [3, 14]: 1.16%
- Tg_72h_%Growth_Rep2 [3, 15]: 1.78%
